Experimental data published in US12180192B2, “Modulators of THR-β and methods of use thereof” (ALIGOS THERAPEUTICS, INC., priority 2019, dated 2024).
Like-named read-outs stand apart in the source and are kept apart here.

Legend:
[1] = target: T1, human thyroid receptor beta ligand-binding domain (LBD) (Homo sapiens, UniProt P10828); assay: TR-FRET thyroid receptor beta coactivator assay (THR biochemical assay, Assay 1); conditions: for EC50: THR-beta, TR-FRET coactivator assay, read-out: Activity category Assay 1 (EC50, THR-beta agonist); for Emax: read-out: Activity category Assay 1 THRβ (Emax)
T1 construct: purchased Invitrogen
T1 sequence (P10828 217-461 limits assumed): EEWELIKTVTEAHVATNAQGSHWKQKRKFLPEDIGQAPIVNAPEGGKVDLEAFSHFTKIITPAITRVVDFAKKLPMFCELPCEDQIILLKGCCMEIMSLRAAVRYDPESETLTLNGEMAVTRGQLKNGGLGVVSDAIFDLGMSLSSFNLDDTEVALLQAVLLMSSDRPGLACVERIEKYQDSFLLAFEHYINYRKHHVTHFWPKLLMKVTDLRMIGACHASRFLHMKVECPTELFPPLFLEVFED
Summary of the method: (§1)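 GST-tagged human TRβ or TRα LBD, 1 nM final (stated for β), with fluorescein-SRC2-2 coactivator peptide (200 nM) and Tb-anti-GST antibody (2 nM). Agonists serially diluted, 1% DMSO final. 1 h incubation at rt in the dark; TR-FRET read as rise in fluorescein and drop in terbium emission.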

[2] = target: T2, human thyroid receptor alpha ligand-binding domain (LBD) (Homo sapiens, UniProt P10827); assay: TR-FRET thyroid receptor alpha coactivator assay (THR biochemical assay, Assay 1); conditions: for EC50: Table 4, THR-alpha, read-out: Activity category Assay 1 (EC50, THR-alpha agonist activity); for Emax: Table 5, THRα, read-out: Activity category Assay 1 THRα (Emax)
T2 construct: purchased Invitrogen
Summary of the method: as §1

[3] = target: T3, THR beta (Homo sapiens, UniProt P10828); assay: HEK293T THR beta/RXR luciferase reporter assay (Assay 2); format: cell-based; conditions: for Emax: HEK-293T, read-out: Activity category Assay 2 THRβ (Emax); for EC50: THR-beta, HEK293T reporter assay, read-out: Activity category Assay 2 (EC50, THR-beta agonist)
T3 construct: expressed in transfected cells; host or cells: HEK293T (ATCC CRL-3216)
T3 sequence (P10828 1-461): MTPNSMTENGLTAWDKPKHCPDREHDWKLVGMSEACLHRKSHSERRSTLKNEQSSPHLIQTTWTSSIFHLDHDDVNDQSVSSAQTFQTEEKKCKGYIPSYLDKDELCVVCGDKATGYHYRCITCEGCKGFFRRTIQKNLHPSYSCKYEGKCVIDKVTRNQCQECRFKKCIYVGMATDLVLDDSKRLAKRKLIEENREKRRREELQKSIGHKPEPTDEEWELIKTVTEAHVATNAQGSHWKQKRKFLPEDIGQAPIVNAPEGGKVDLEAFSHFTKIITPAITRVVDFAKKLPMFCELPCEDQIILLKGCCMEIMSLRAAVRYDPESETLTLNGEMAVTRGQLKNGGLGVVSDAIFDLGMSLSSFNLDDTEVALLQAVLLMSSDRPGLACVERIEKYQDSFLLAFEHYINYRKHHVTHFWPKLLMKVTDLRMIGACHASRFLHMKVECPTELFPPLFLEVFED
T3 sequence (P19793 1-462 partner): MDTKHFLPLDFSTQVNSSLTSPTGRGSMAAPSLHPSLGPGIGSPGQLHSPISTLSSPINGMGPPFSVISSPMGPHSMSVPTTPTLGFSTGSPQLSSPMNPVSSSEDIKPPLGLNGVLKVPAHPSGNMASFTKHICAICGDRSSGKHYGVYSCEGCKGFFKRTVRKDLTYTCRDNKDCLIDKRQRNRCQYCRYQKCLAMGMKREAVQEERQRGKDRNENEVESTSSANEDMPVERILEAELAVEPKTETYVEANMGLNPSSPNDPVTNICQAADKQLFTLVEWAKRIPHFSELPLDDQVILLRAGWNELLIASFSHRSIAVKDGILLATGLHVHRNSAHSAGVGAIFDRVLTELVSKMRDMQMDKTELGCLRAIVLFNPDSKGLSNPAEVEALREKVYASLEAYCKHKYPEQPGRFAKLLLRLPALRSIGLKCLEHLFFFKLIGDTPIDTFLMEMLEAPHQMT
Experimental: (§2) HEK293T Reporter THRalpha/Beta/RXR Reporter Assay (Assay 2)
(§3) The purpose of this assay is to evaluate the effect of compounds on the thyroid hormone nuclear receptor pathway in HEK293T cells. To this end, HEK293T cells are transiently transfected with a luciferase reporter under the control of the thyroid response element (TRE), an RXR expression plasmid and either a THR alpha or THR beta expression plasmid. Transfected cells are stimulated with test compounds for 18-24 hours before activation of the thyroid hormone pathway is measured via a luciferase read-out.
(§4) Procedure. […] Ten five-fold dilutions of test compounds are prepared in DMSO and 30 nL are dispensed to the cells. […] Approximately 18-24 h after compound addition, 384 well plates are allowed to adjust to rt, 30 μL One-Glo (Promega catalog #E6120) is added to each well and luminescence is measured on a Perkin Elmer Enspire plate reader. Percent agonism is calculated using the following equation: 100× (sample-negative control)/(positive control-negative control).

[4] = target: T4, THR alpha (Homo sapiens, UniProt P10827); assay: HEK293T THR alpha/RXR luciferase reporter assay (Assay 2); format: cell-based; conditions: Assay 2; for Emax: HEK-293T, Table 5, THRα, read-out: Activity category Assay 2 THRα (Emax); for EC50: Table 4, THR-alpha, read-out: Activity category Assay 2 (EC50, THR-alpha agonist activity)
T4 construct: expressed in transfected cells; host or cells: HEK293T (ATCC CRL-3216)
T4 sequence (P10827 1-410 isoform P10827-2): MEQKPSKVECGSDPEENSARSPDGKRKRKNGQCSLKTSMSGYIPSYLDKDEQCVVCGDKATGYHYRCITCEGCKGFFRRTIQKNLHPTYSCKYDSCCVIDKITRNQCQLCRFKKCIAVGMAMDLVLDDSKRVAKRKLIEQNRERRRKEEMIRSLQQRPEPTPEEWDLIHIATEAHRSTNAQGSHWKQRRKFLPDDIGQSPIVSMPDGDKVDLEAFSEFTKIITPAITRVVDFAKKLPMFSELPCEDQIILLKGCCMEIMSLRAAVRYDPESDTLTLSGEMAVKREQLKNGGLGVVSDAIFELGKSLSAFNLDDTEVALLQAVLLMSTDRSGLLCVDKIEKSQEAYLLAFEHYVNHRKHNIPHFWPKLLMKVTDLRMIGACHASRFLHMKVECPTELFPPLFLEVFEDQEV
T4 sequence (P19793 1-462 partner): T3 sequence (P19793 1-462 partner)
Experimental: as §2, §3, §4

Row | SMILES | EC50 [1] | Emax ([1]; Table 5, Assay 1, THRβ) | EC50 [2] | Emax [2] | Emax ([3]; Table 5, Assay 2, THRβ) | EC50 [3] | Emax [4] | EC50 [4] | Emax [1] | Emax [3]
1 | Nc1nn(-c2cc(Cl)c(Oc3cc(-c4cccc(F)c4)c(=O)[nH]n3)c(Cl)c2)c(=O)[nH]c1=O [Compound 69, 6-Amino-2-(3,5-dichloro-4-((5-(3-fluorophenyl)-6-oxo-1,6-dihydropyridazin-3-yl)oxy)phenyl)-1,2,4-triazine-3,5(2H,4H)-dione] | 50 to 250 nM | < 50% | 250 to 1000 nM | < 50% | 50 to 75% | 50 to 250 nM | 50 to 75% | 50 to 250 nM | – | –
2 | Cc1cc(-n2ncc(=O)[nH]c2=O)cc(C)c1Cc1ccc2c(c1)C1(CC1)C(=O)N2 [Compound 152, 2-(3,5-dimethyl-4-((2′-oxospiro[cyclopropane-1,3′-indolin]-5′-yl)methyl)phenyl)-1,2,4-triazine-3,5(2H,4H)-dione] | < 50 nM | < 50% | < 50 nM | 50 to 75% | 50 to 75% | < 50 nM | 50 to 75% | < 50 nM | – | –
3 | Cc1cc(-n2nc(C#N)c(=O)[nH]c2=O)cc(C)c1Cc1ccc2[nH]cc(C(C)C)c2c1 [Compound 3, 2-(4-((3-isopropyl-1H-indol-5-yl)methyl)-3,5-dimethylphenyl)-3,5-dioxo-2,3,4,5-tetrahydro-1,2,4-triazine-6-carbo-nitrile] | < 50 nM | 50 to 75% | > 25000 nM | < 50% | > 75% | 50 to 250 nM | > 75% | 250 to 1000 nM | – | –
4 | CC(C)(C)c1cc(Oc2c(Cl)cc(-n3nc(N)c(=O)[nH]c3=O)cc2Cl)n[nH]c1=O [Compound 73, 6-Amino-2-(4-((5-(t-butyl)-6-oxo-1,6-dihydropyridazin-3-yl)oxy)-3,5-dichlorophenyl)-1,2,4-triazine-3,5(2H, 4H)-dione] | 50 to 250 nM | < 50% | 250 to 1000 nM | 50 to 75% | > 75% | 50 to 250 nM | > 75% | 250 to 1000 nM | – | –
5 | COC(=O)c1c[nH]c2ccc(Oc3c(Cl)cc(-n4nc(C#N)c(=O)[nH]c4=O)cc3Cl)cc12 [Compound 4, methyl 5-[2,6-dichloro-4-(6-cyano-3,5-dioxo-4H-1,2,4-triazin-2-yl)phenoxy]-1H-indole-3-carboxylate] | < 50 nM | – | > 25000 nM | < 50% | – | 1000 to 10000 nM | 50 to 75% | > 10000 nM | < 50% | > 75%
6 | Cc1c(-n2nc(N)c(=O)[nH]c2=O)cc(Cl)c(Oc2cc(C(C)C)c(=O)[nH]n2)c1Cl [Compound 35, 6-amino-2-[3,5-dichloro-4-[(5-isopropyl-6-oxo-1H-pyridazin-3-yl)oxy]-2-methyl-phenyl]-4H-1,2,4-triazine-3,5-dione] | 1000 to 25000 nM | 50 to 75% | 1000 to 25000 nM | 50 to 75% | 50 to 75% | 1000 to 10000 nM | < 50% | 1000 to 10000 nM | – | –

Second part, led by results:

Row | EC50 [1] | Emax ([1]; Table 5, Assay 1, THRβ) | EC50 [2] | Emax [2] | Emax ([3]; Table 5, Assay 2, THRβ) | EC50 [3] | Emax [4] | EC50 [4] | SMILES | Emax [1] | Emax [3]
7 | 50 to 250 nM | < 50% | 250 to 1000 nM | 50 to 75% | > 75% | 50 to 250 nM | > 75% | 250 to 1000 nM | Nc1nn(-c2cc(Cl)c(Oc3cc(C(O)C4CCCC4)c(=O)[nH]n3)c(Cl)c2)c(=O)[nH]c1=O (centres unmarked) [Compound 77, 6-amino-2-[3,5-dichloro-4-([5-[cyclopentyl(hydroxy)methyl]-6-oxo-1H-pyridazin-3-yl]oxy)phenyl]-4H-1,2,4-triazine-3,5-dione] | – | –
8 | < 50 nM | 50 to 75% | 50 to 250 nM | < 50% | 50 to 75% | < 50 nM | 50 to 75% | 50 to 250 nM | Nc1nn(-c2cc(Cl)c(Oc3cc(-c4cccc(OC(F)F)c4)c(=O)[nH]n3)c(Cl)c2)c(=O)[nH]c1=O [Compound 118] | – | –
9 | < 50 nM | < 50% | > 25000 nM | < 50% | 50 to 75% | 1000 to 10000 nM | < 50% | > 10000 nM | N#Cc1nn(-c2cc(Cl)c(Oc3ccc4[nH]cc(Cc5ccccc5)c4c3)c(Cl)c2)c(=O)[nH]c1=O [Compound 46, 2-[4-[(3-benzyl-1H-indol-5-yl)oxy]-3,5-dichlorophenyl]-3,5-dioxo-4H-1,2,4-triazine-6-carbonitrile] | – | –
10 | < 50 nM | < 50% | 1000 to 25000 nM | < 50% | 50 to 75% | 50 to 250 nM | < 50% | 250 to 1000 nM | Nc1nn(-c2cc(Cl)c(Oc3cc(C4(c5ccccc5)CC4)c(=O)[nH]n3)c(Cl)c2)c(=O)[nH]c1=O [Compound 107] | – | –
11 | < 50 nM | < 50% | > 25000 nM | < 50% | > 75% | 1000 to 10000 nM | < 50% | 1000 to 10000 nM | CCCc1c[nH]c2ccc(Oc3c(Cl)cc(-n4nc(C#N)c(=O)[nH]c4=O)cc3Cl)nc12 [Compound 19] | – | –
12 | 50 to 250 nM | < 50% | 1000 to 25000 nM | < 50% | < 50% | 50 to 250 nM | < 50% | > 10000 nM | O=c1cnn(-c2cc(Cl)c(Oc3cc(-c4ccc5ccccc5c4)c(=O)[nH]n3)c(Cl)c2)c(=O)[nH]1 [Compound 92] | – | –
13 | < 50 nM | < 50% | < 50 nM | 50 to 75% | > 75% | 50 to 250 nM | > 75% | 50 to 250 nM | CC(C)C1(C)C(=O)Nc2ccc(Oc3c(Cl)cc(-n4nc(N)c(=O)[nH]c4=O)cc3Cl)cc21 (centres unmarked) [Compound 84, 6-amino-2-[3,5-dichloro-4-[(3-isopropyl-3-methyl-2-oxo-1H-indol-5-yl)oxy]phenyl]-4H-1,2,4-triazine-3,5-dione] | – | –
